Where “and” joins values, the source holds several entries; their conditions need not be identical. Identical values can stand only once. Entries after “also recorded” stand apart in the source; their conditions may differ. Like-named read-outs stand apart in the source and are kept apart here.
Columns and labels:
B. theta BSH KO strain = assay: Incubation with BSH-deleted B. theta strain; conditions: 100 μM inhibitor
[1] = system: three Gram negative and three Gram positive strains of human gut bacteria; assay: Growth (OD600) and cell viability (CFU/mL) of the six gut bacterial strains; conditions: 100 μM inhibitor
B. theta BSH [2] = target: T1, B. theta BSH (Bacteroides thetaiotaomicron, UniProt Q8A600); assay: Inhibitor screen using rBSH, B. theta BSH (UPLC-MS % deconjugation)
[3] = system: BSH activity in conventional mouse feces; assay: Screen of inhibitors in conventional mouse feces; assay type: biochemical; conditions: 20 μM inhibitor, 30 min, then GCDCA-d4 100 μM, 18 hours
Experimental: Screen of Inhibitors in Conventional Mouse Feces. […] The tubes were then frozen in dry ice for 5 mins and upon thawing were diluted with an equal volume of methanol. […] The supernatant was removed into a clean eppendorf tube and centrifuged again. […] The concentration of product detected from these assays was reported directly.

B. adolescentis BSH = assay: Target validation and off-target profiling in B. adolescentis using 7-N3; assay type: cell-based, Bifidobacterium adolescentis L2-32; conditions: decreasing concentrations of 7 for 1 h, then 10 μM 7-N3
Experimental: Target Validation and Off-target Profiling in B. adolescentis using 7-N3. Pilot studies with 7-N3 were performed using B. adolescentis (Gram positive) and B. theta (Gram negative). We chose to use B. adolescentis due to the stronger total fluorescent signal detected by-in gel fluorescence. […] Cultures were allowed to grow anaerobically at 37° C. for 21 h. 10 μM 7-N3 (10 mM stock in DMSO) or […] DMSO (to control tubes) was then added to the cultures and incubated anaerobically at 37° C. for 1 h. The cultures were centrifuged at 2,500 g at 4° C. for 15 mins. The media was decanted and cells were resuspended in PBS containing 1 mM TCEP and 1 mM PMSF and centrifuged 4,200 rpm at 4° C. for 15 mins. The buffer was decanted and the cells were suspended in 300 μL of fresh buffer and transferred to homogenizing tubes (Precellys lysing kit tough micro-organism lysing VK05 tubes) with ceramic beads. The suspension was then homogenized (5000 speed for 90 s*2, 6500 speed for 60 s) and spun down for 20 min at 15,000 g at 4° C. The supernatant was removed and the concentration of proteins in the lysate was quantified by Bradford assay. The lysates were then subjected to click reaction as per “Click Chemistry for In-gel Fluorescence Imaging” for fluorescence imaging and “Click Chemistry for MS/MS on Bacterial Lysate” for mass spectrophotometer-based quantification and identification.
Cultures were allowed to grow anaerobically at 37° C. for 21 h. Decreasing concentrations of 7 were added to different tubes and the cultures were incubated anaerobically at 37° C. for 1 h. 10 μM 7-N3 was then added to the cultures and incubated anaerobically at 37° C. for an additional hour. The cultures were further processed as per the reported method in “Target Validation and Off-target Profiling in B. adolescentis using 7-N3” and “Click Chemistry for In-gel Fluorescence Imaging”.
Click Chemistry for In-gel Fluorescence Imaging. Click reactions were performed on 25 μL scale. Lysates (normalized to 1.5 mg/mL for both bacterial and mammalian cells) pretreated with 10 μM Compound 7-N3 were incubated with 100 μM fluor 488-alkyne (10 mM stock in DMSO), 100 μM CuBr (5 mM stock in DMSO), and 100 μM Tris[(1-benzyl-1H-1,2,3-triazol-4-yl)methyl]amine (5 mM stock in 4:1 t-BuOH:DMSO) for 1 h at 37° C. in the dark. 10 μL of 2×Laemmli buffer (containing 5% β-mercaptoethanol) was added to the reactions and the tubes were heated at 95° C. for 10 mins. 15 μL of the protein samples were then resolved by 10% SDS-PAGE. The ladder was diluted 100-fold and 10 μL was loaded. Gels were destained for 30 mins using 40% methanol, 50% acetic acid, 10% water and visualized using Bio-Rad ChemiDoc MP Imaging System. Gels were stained for 20 mins in Coomassie blue and destained for 2 h prior to imaging.
Click Chemistry for MS/MS on Bacterial Lysate. Click reactions were performed on 100 μL scale. Lysates (normalized to 1.3 mg/mL) pretreated with 10 μM 7-N3 were incubated with 100 μM desthiobiotin-PEG4-alkyne (10 mM stock in DMSO), 1 mM CuBr (50 mM stock in DMSO), and 1 mM Tris[(1-benzyl-1H-1,2,3-triazol-4-yl)methyl]amine (50 mM stock in 4:1 t-BuOH:DMSO) for 1 h at 37° C. The samples were then processed for further analysis as per “Proteomic Analysis of Click-Tagged Proteins”.
Proteomic Analysis of Click-Tagged Proteins.

B. adolescentis = assay: Inhibitor screen in bacteria, B. adolescentis culture; assay type: cell-based, Bifidobacterium adolescentis L2-32; conditions: FIG. 2c, 100 μM inhibitor, 100 μM bile acid pool, 21 h, replicates 1-3
[4] = system: differentiated Caco-2 cells
B. theta = assay: Determination of IC50 of compound 7 in B. theta cultures
B. theta cultures = assay: BSH inhibition in growing B. theta cultures, single substrate (GUDCA or TUDCA); assay type: cell-based, Bacteroides thetaiotaomicron; conditions: 10 μM inhibitor, 100 μM GUDCA
B. theta BSH [5] = target: T1, B. theta BSH; assay: Compound 7 kinetic studies (time to complete inhibition); assay type: biochemical
Experimental: Formation of deconjugated bile acid was measured using a UPLC-MS-based assay and reported as % conversion.
Compound 7 Kinetic Studies. […] B. theta BSH (200 nM) was added to a pool of 100 μM bile acid pool and 100 μM 7. 500 μL aliquots were removed at indicated time points and flash frozen in liquid nitrogen. […] Procedure was repeated with 8.2 mM TUDCA.

L. plantarum = assay: Inhibitor screen in bacteria, L. plantarum culture; assay type: cell-based, Lactobacillus plantarum WCFS1; conditions: FIG. 2c, L. plantarum culture; 100 μM inhibitor, 100 μM bile acid pool, 21 h; replicates 1-3
[6] = Supplementary FIG. 3a, 5 hours, 100 μM inhibitor, 200 nM rBSH, bile acid pool, replicates 1-3

Q: What does the source list for `C[C@H](CCC(=O)CF)[C@H]1CC[C@H]2[C@@H]3[C@H](O)C[C@@H]4C[C@H](O)CC[C@]4(C)[C@H]3CC[C@]12C` [Compound 7]?
A: bactericidal effect on BSH-deleted B. theta (CFUs after 24 h) (B. theta BSH KO strain): not found to be bactericidal; effect on bile acid pools with B. theta BSH KO strain (B. theta BSH KO strain; 100 μM taurine conjugated pool, 24 h): did not alter bile acid pools; effect on bacterial cell viability (CFU/mL, plated at 21 h) [1]: not bactericidal; also recorded: did not significantly affect the cell viability of the majority of the tested strains; effect on bacterial growth (OD600 at 24 hours) [1]: did not significantly impact the growth; effect on bacterial growth (OD600 at 24 hours) ([1]; listed as compound 7): not bactericidal; % deconjugation of TβMCA (B. theta BSH [2]; FIG. 2a, 2 hours, 100 μM inhibitor, 200 nM rBSH, bile acid pool, replicates 1-3): 0.00%; % deconjugation of TβMCA (B. theta BSH [2]; FIG. 2a, 21 hours, 100 μM inhibitor, 200 nM rBSH, bile acid pool, replicates 1-3): 0.00%; % deconjugation of TCA (B. theta BSH [2]; [6]): 0.00%; % deconjugation of TβMCA (B. theta BSH [2]; [6]): 0.00%; inhibition at 100 µM (B. theta BSH [2]; read-out: inhibition of B. theta BSH activity for 21 hours): > 98%; BSH activity in resuspended conventional mouse feces (in words) [3]: completely inhibited BSH activity in feces; BSH activity in resuspended conventional mouse feces (in words) ([3]; listed as compound 7): effectively inhibited BSH activity; also recorded: completely inhibited the BSH activity in feces; also recorded: almost completely inhibited BSH activity; competition of 7 with 7-N3 for labeling of B. adolescentis BSH (B. adolescentis BSH): dose-dependent labeling; % deconjugation of TCA (B. adolescentis): 2.88% and 3.09% and 2.93%; % deconjugation of TDCA (B. adolescentis): 10.43% and 6.05% and 7.35%; % deconjugation of TUDCA (B. adolescentis): 1.54% and 1.26% and 1.21%; % deconjugation of TβMCA (B. adolescentis): 0.34% and 0.37% and 0.73%; epithelial monolayer integrity (passive diffusion of 4 kDa FITC-dextran) [4]: did not compromise epithelial monolayer integrity; IC50 (B. theta; Bacteroides thetaiotaomicron, 48 h, read-out: IC50 against B. theta (growing culture), 100 μM TUDCA, 48 h anaerobic growth): 913 nM; IC50 (B. theta; read-out: IC50 against B. theta (growing culture), 100 μM TUDCA, 48 h anaerobic growth): 1070 nM; deconjugation of GUDCA in growing B. theta cultures (in words) (B. theta cultures): nearly complete inhibition of deconjugation; time to complete inhibition of B. theta BSH (B. theta BSH [5]; 100 μM 7 equimolar to substrate, no preincubation): ≤ 15 s; time to entire inhibition of B. theta BSH activity (B. theta BSH [5]; large excess (~80-fold) of substrate (8.2 mM TUDCA)): ≤ 15 min; % deconjugation of TCA (L. plantarum): 0.77% and 0.93% and 1.02%; % deconjugation of TDCA (L. plantarum): 3.22% and 0.62% and 0.64%; % deconjugation of TUDCA (L. plantarum): 1.46% and 0.97% and 1.32%; % deconjugation of TβMCA (L. plantarum): 0.15% and 0.49% and 0.62%

— patent US12577273B2, “Small molecule modulators of gut bacterial bile acid metabolism” (priority 2019, dated 2026)
